This assay concerns Grippevirus A/Vladivostok/2/09 (H1N1). The assay can be described thus: Survival of mice infected with a lethal dose of influenza virus, peroral treatment for 5 days. The settings on record: virus strain resistant to Oseltamyvir; 30 mg/kg. The assay is classed as in vivo, Mäuse. The text has this:
Die Wirksamkeit des Mittels wurde an einem Modell der Überlebensfähigkeit von angesteckten Versuchstieren geprüft. Die Versuchstiere wurden mit einer tödlichen Dosis des Grippevirus A/Vladivostok/2/09 (H1N1) angesteckt. Während der Forschung wurde das erfindungsgemäße Mittel 5 Tage lang peroral verabreicht.
Als Versuchstiere wurden weiße männliche Auszucht-Mäuse mit einem Körpergewicht von 16 - 18 g aus der Aufzuchtstation Rappolovo der Russischen Akademie der medizinischen Wissenschaften verwendet. Vor der Prüfung wurden die Versuchstiere einer Quarantäne in einem Vivarium im Laufe einer Woche unterzogen. Die Versuchstiere wurden unter genormten Klima-Bedingungen mit ausgewogener Fütterung gehalten. Jede Gruppe enthielt je 30 Versuchstiere.
Um eine versuchsmäßige Grippe-Infektion zu simulieren, wurde ein bestimmter Virusstamm eingesetzt. Die Versuchstiere wurden mit dem A/Vladivostok/2/09 (H1N1)-Virus in Mengen von 1 und 10 DL50 intranasal angesteckt.
Die Behandlung der angesteckten Mäuse wurde 24 Stunden nach der Ansteckung begonnen. Die Präparate wurden intragastrisch mittels einer Sonde verabreicht. Bei diesen Präparaten handelte es sich um eine Lösung in einer physiologischen Kochsalzlösung. Die Dosis des Arzneimittels wurde pro ein kg des Körpergewichts des Tieres berechnet. Die Behandlung wurde im Laufe von 5 Tagen vorgenommen. […]

Take `CCOC(=O)C1=C[C@@H](OC(CC)CC)[C@H](NC(C)=O)[C@@H](N)C1` [Tamiflu, Oseltamyvir]: the Schutzsteigerung entry is given as “keine zuverlässige Schutzsteigerung”.

Source of the values: EP2918282A1, “Pharmaceutical composition for the treatment of virus diseases, such as flu” (OOO "CytoNIR", priority 2014, dated 2015).
